Laboratory results: PMC7611415 (Chembiochem : a European journal of chemical biology, 2020)

Biological target: T1, acetylcholine-binding protein (AcAChBP) (Aplysia californica, UniProt Q8WSF8)
T1 sequence (Q8WSF8 20-236): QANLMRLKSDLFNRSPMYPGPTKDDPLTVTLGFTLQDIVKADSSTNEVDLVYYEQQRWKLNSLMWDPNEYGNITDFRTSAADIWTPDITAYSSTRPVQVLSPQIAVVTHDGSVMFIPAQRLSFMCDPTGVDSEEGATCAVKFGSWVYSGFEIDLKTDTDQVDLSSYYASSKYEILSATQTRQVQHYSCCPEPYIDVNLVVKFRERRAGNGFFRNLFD
Test: tryptophan fluorescence quenching

With `C[N+]1(C)CCc2cc3c(cc2[C@H]1[C@@H]1OC(=O)c2c1ccc1c2OCO1)OCO3` [N-methylbicuculline] the Kd was 1200 ± 100 nM.
